Test results from patent publication US20150105252A1, “SUBSTITUTED PYRAZOLES AS HERBICIDES” (E I DU PONT DE NEMOURS AND COMPANY, priority 2013, published 2015).

What was measured:
corn = test: Test C postemergence; assay type: in vivo, Zea mays; conditions: for Plant response rating (scale of 0 to 100 where 0 is no effect and 100 is complete control), Corn: Postemergence, 31 g ai/ha, visually evaluated after 13 to 15 days; for Corn plant response rating / Plant response rating, Corn: postemergence; for Corn plant response rating: 62 g ai/ha, scale 0 to 100
How it was run: (§1)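 In this greenhouse assay, seeded soil (loam plus sand) or emerged seedlings in peat-vermiculite medium were treated with formulated compound. Roughly two weeks later (13–15 days), each species was scored visually relative to controls, from 0 for no effect to 100 for complete control.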

lambsquarters = test: Test C postemergence; assay type: in vivo, Chenopodium album; conditions: for Plant response rating (scale of 0 to 100 where 0 is no effect and 100 is complete control), Lambsquarters: Postemergence, 31 g ai/ha, visually evaluated after 13 to 15 days; for Lambsquarters plant response rating / Plant response rating, Lambsquarters: postemergence; for Lambsquarters plant response rating: 62 g ai/ha, scale 0 to 100
How it was run: as §1

ducksalad = test: Test B flood; assay type: in vivo, Heteranthera limosa; conditions: 250 g ai/ha, visual rating on 0 to 100 scale (0 no effect, 100 complete control), 13 to 15 days
How it was run: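 Greenhouse assay lasting 13 to 15 days. Treatment was into water flooding pots 3 cm deep, at the 2-leaf stage, with that level sustained afterwards. Scores compare treated with control plants visually, 100 denoting complete control and 0 no effect; a dash marks no test result.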

pigweed = test: Test A postemergence; assay type: in vivo, Amaranthus retroflexus
How it was run: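 Seeds were sown in a loam soil–sand blend and given a directed soil spray preemergence; postemergence plants at 2–10 cm, one- to two-leaf stage, were sprayed with compound in non-phytotoxic solvent with surfactant. After about 10 days in a greenhouse, injury was visually rated against untreated controls (0 = no effect, 100 = complete control).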

ryegrass, Italian [1] = test: Test C postemergence; assay type: in vivo, Lolium multiflorum; conditions: for Plant response rating (scale of 0 to 100 where 0 is no effect and 100 is complete control), Ryegrass, Italian: Postemergence, 31 g ai/ha, visually evaluated after 13 to 15 days; for Ryegrass, Italian plant response rating / Plant response rating, Ryegrass, Italian: postemergence; for Ryegrass, Italian plant response rating: 62 g ai/ha, scale 0 to 100
How it was run: as §1

waterhemp [2] = test: Test C preemergence; assay type: in vivo, Amaranthus rudis; conditions: for Plant response rating (scale of 0 to 100), Waterhemp: Preemergence, 250 g ai/ha
How it was run: as §1

nutsedge, yellow = test: Test C preemergence; assay type: in vivo, Cyperus esculentus; conditions: for Plant response rating (scale of 0 to 100), Nutsedge, Yellow: Preemergence, 250 g ai/ha
How it was run: as §1

ragweed = test: Test C preemergence; assay type: in vivo, Ambrosia elation; conditions: for Plant response rating (scale of 0 to 100), Ragweed: Preemergence, 250 g ai/ha
How it was run: as §1

waterhemp [3] = test: Test C postemergence; assay type: in vivo, Amaranthus rudis; conditions: for Plant response rating (scale of 0 to 100 where 0 is no effect and 100 is complete control), Waterhemp: Postemergence, 31 g ai/ha, visually evaluated after 13 to 15 days; for Waterhemp plant response rating / Plant response rating, Waterhemp: postemergence; for Waterhemp plant response rating: 62 g ai/ha, scale 0 to 100
How it was run: as §1

foxtail, giant = test: Test C preemergence; assay type: in vivo, Setaria faberii; conditions: for Plant response rating (scale of 0 to 100), Foxtail, Giant: Preemergence, 250 g ai/ha
How it was run: as §1

crabgrass, large = test: Test C preemergence; assay type: in vivo, Digitaria sanguinalis; conditions: for Plant response rating (scale of 0 to 100), Crabgrass, Large: Preemergence, 250 g ai/ha
How it was run: as §1

ryegrass, Italian [4] = test: Test C preemergence; assay type: in vivo, Lolium multiflorum; conditions: for Plant response rating (scale of 0 to 100), Ryegrass, Italian: Preemergence, 250 g ai/ha
How it was run: as §1

[5] = 250 g ai/ha, scale 0 to 100 (0 no effect, 100 complete control)
[6] = 125 g ai/ha, scale 0 to 100, 0 no effect, 100 complete control
[7] = Postemergence, 500 g ai/ha, 0 to 100 scale (0 no effect, 100 complete control)
[8] = postemergence, 125 g ai/ha, about 10 days, visual rating on 0 to 100 scale (0 no effect, 100 complete control)
[9] = preemergence, 31 g ai/ha, visual rating, scale 0 to 100 (0 no effect, 100 complete control), 13 to 15 days
[10] = preemergence, 62 g ai/ha, scale 0 to 100 (0 no effect, 100 complete control), 13 to 15 days
[11] = preemergence, 125 g ai/ha, scale 0 to 100, 0 is no effect, 100 is complete control
[12] = preemergence, 125 g ai/ha, 13 to 15 days, scale 0 to 100, 0 = no effect, 100 = complete control

CCc1cc(C(=O)NOC(C)C)nn1Cc1ccnc(OC(F)F)c1 [Compound 126]
Plant response rating (scale of 0 to 100 where 0 is no effect and 100 is complete control), Corn (corn): 5
Corn plant response rating (corn): 10
Plant response rating, Corn (corn; [5]): 55
Plant response rating, Corn (corn; [6]): 35
Plant response rating (scale of 0 to 100 where 0 is no effect and 100 is complete control), Lambsquarters (lambsquarters): 35
Lambsquarters plant response rating (lambsquarters): 70
Plant response rating, Lambsquarters (lambsquarters; [5]): 90
Plant response rating, Lambsquarters (lambsquarters; [6]): 80
Plant response rating, Ducksalad (ducksalad): 95
Pigweed plant response rating (pigweed; [7]): 90
Pigweed plant response rating (pigweed; [8]): 90
Plant response rating (scale of 0 to 100 where 0 is no effect and 100 is complete control), Ryegrass, Italian (ryegrass, Italian [1]): 5
Ryegrass, Italian plant response rating (ryegrass, Italian [1]): 5
Plant response rating, Ryegrass, Italian (ryegrass, Italian [1]; [5]): 15
Plant response rating, Ryegrass, Italian (ryegrass, Italian [1]; [6]): 10
Plant response rating (scale of 0 to 100), Waterhemp (waterhemp [2]): 100
Waterhemp plant response rating (waterhemp [2]; [9]): 90
Waterhemp plant response rating (waterhemp [2]; [10]): 98
Waterhemp plant response rating (waterhemp [2]; [11]): 100
Plant response rating (scale of 0 to 100), Nutsedge, Yellow (nutsedge, yellow): 90
Nutsedge, Yellow plant response rating (nutsedge, yellow; [9]): 25
Nutsedge, Yellow plant response rating (nutsedge, yellow; [10]): 45
Nutsedge, Yellow plant response rating (nutsedge, yellow; [11]): 75
Plant response rating (scale of 0 to 100), Ragweed (ragweed): 90
Ragweed plant response rating (ragweed; [9]): 70
Ragweed plant response rating (ragweed; [10]): 100
Ragweed plant response rating (ragweed; [11]): 100
Plant response rating (scale of 0 to 100 where 0 is no effect and 100 is complete control), Waterhemp (waterhemp [3]): 40
Waterhemp plant response rating (waterhemp [3]): 50
Plant response rating, Waterhemp (waterhemp [3]; [5]): 90
Plant response rating, Waterhemp (waterhemp [3]; [6]): 70
Plant response rating (scale of 0 to 100), Foxtail, Giant (foxtail, giant): 100
Foxtail, Giant plant response rating (foxtail, giant; [9]): 45
Foxtail, Giant plant response rating (foxtail, giant; [10]): 85
Foxtail, Giant plant response rating (foxtail, giant; [11]): 98
Plant response rating (scale of 0 to 100), Crabgrass, Large (crabgrass, large): 100
Crabgrass, Large plant response rating (crabgrass, large; [9]): 90
Crabgrass, Large plant response rating (crabgrass, large; [10]): 100
Crabgrass, Large plant response rating (crabgrass, large; [11]): 100
Plant response rating (scale of 0 to 100), Ryegrass, Italian (ryegrass, Italian [4]): 90
Ryegrass, Italian plant response rating (ryegrass, Italian [4]; [9]): 15
Ryegrass, Italian plant response rating (ryegrass, Italian [4]; [10]): 60
Ryegrass, Italian plant response rating (ryegrass, Italian [4]; [11]): 90

CCCc1cc(C(=O)NCC(F)(F)F)nn1Cc1ccnc(OC(F)F)c1 [Compound 127]
Plant response rating (scale of 0 to 100 where 0 is no effect and 100 is complete control), Corn (corn): 5
Corn plant response rating (corn): 5
Plant response rating, Corn (corn; [5]): 25
Plant response rating, Corn (corn; [6]): 10
Plant response rating (scale of 0 to 100 where 0 is no effect and 100 is complete control), Lambsquarters (lambsquarters): 65
Lambsquarters plant response rating (lambsquarters): 80
Plant response rating, Lambsquarters (lambsquarters; [5]): 85
Plant response rating, Lambsquarters (lambsquarters; [6]): 85
Plant response rating, Ducksalad (ducksalad): 95
Pigweed plant response rating (pigweed; [7]): 90
Pigweed plant response rating (pigweed; [8]): 90
Plant response rating (scale of 0 to 100 where 0 is no effect and 100 is complete control), Ryegrass, Italian (ryegrass, Italian [1]): 5
Ryegrass, Italian plant response rating (ryegrass, Italian [1]): 5
Plant response rating, Ryegrass, Italian (ryegrass, Italian [1]; [5]): 40
Plant response rating, Ryegrass, Italian (ryegrass, Italian [1]; [6]): 10
Plant response rating (scale of 0 to 100), Waterhemp (waterhemp [2]): 100
Waterhemp plant response rating (waterhemp [2]; [9]): 100
Waterhemp plant response rating (waterhemp [2]; [10]): 100
Plant response rating, Waterhemp (waterhemp [2]; [12]): 100
Plant response rating (scale of 0 to 100), Nutsedge, Yellow (nutsedge, yellow): 85
Nutsedge, Yellow plant response rating (nutsedge, yellow; [9]): 25
Nutsedge, Yellow plant response rating (nutsedge, yellow; [10]): 50
Plant response rating, Nutsedge, Yellow (nutsedge, yellow; [12]): 70
Plant response rating (scale of 0 to 100), Ragweed (ragweed): 90
Ragweed plant response rating (ragweed; [9]): 15
Ragweed plant response rating (ragweed; [10]): 25
Plant response rating, Ragweed (ragweed; [12]): 60
Plant response rating (scale of 0 to 100 where 0 is no effect and 100 is complete control), Waterhemp (waterhemp [3]): 50
Waterhemp plant response rating (waterhemp [3]): 65
Plant response rating, Waterhemp (waterhemp [3]; [5]): 70
Plant response rating, Waterhemp (waterhemp [3]; [6]): 70
Plant response rating (scale of 0 to 100), Foxtail, Giant (foxtail, giant): 98
Foxtail, Giant plant response rating (foxtail, giant; [9]): 98
Foxtail, Giant plant response rating (foxtail, giant; [10]): 100
Plant response rating, Foxtail, Giant (foxtail, giant; [12]): 100
Plant response rating (scale of 0 to 100), Crabgrass, Large (crabgrass, large): 100
Crabgrass, Large plant response rating (crabgrass, large; [9]): 80
Crabgrass, Large plant response rating (crabgrass, large; [10]): 100
Plant response rating, Crabgrass, Large (crabgrass, large; [12]): 100
Plant response rating (scale of 0 to 100), Ryegrass, Italian (ryegrass, Italian [4]): 80
Ryegrass, Italian plant response rating (ryegrass, Italian [4]; [9]): 25
Ryegrass, Italian plant response rating (ryegrass, Italian [4]; [10]): 60
Plant response rating, Ryegrass, Italian (ryegrass, Italian [4]; [12]): 80
